Structures are written as SMILES. Converted amounts (≈) assume the structure as drawn.

Results on 18 compounds are retold here after ChEMBL document CHEMBL3637782, “GSK Tres Cantos Follow-up TB Screening Data” (2016).

Data set [1] in a line: GSK_TB: Kinetic solubility of the compound in phosphate buffered saline at pH 7.4 after 1 hr by CLND method. It is filed as physicochemical.
For data set [2], the system named is Mycobacterium tuberculosis H37Rv. The data set is described as follows: GSK_TB: Inhibition of the intracellular growth of Mycobacterium tuberculosis (pXC50). It is filed as functional, ATCC25618.
Data set [3] is described as follows: GSK_TB: AVG_CHROM_LOGP. It counts as physicochemical.
Data set [4] in a line: GSK_TB: Lipophilicity, log D of the compound at pH 7.4 by ChromlogD analysis. It is filed as physicochemical. To be noted: buffer.
A further data set has as its system HepG2. The data set is described as follows: GSK_TB: The cytotoxicity against HepG2 cells expressed as IC50. It counts as functional, cell-based. The following applies: Homo sapiens.
Data set [5] has as its system Mycobacterium tuberculosis H37Rv. The data set is described as follows: GSK_TB: Minimum inhibitory concentration against H37Rv stain of Mycobacterium tuberculosis using MABA method. To be noted: ATCC25618. It is filed as functional. A general note: The colour change of resazurin is a common sign of viable cells or microbes.
For data set [6] the test system is unchanged. The data set is described as follows: GSK_TB: Growth inhibition of non-replicating Mycobacterium tuberculosis (pXC50). It counts as functional, ATCC25618.

Turning to `O=C(NCc1ccco1)N1CCN(Cc2ccc3c(c2)CCO3)CC1`, in data set [1], the solubility (kinetic) at 1 h turned out to be 88 µg/mL (≈ 258 µM). In data set [2], this compound returned a pXC50 of 5.8. Further, the Lipophilicity in data set [3] is on record as 3.5941; in data set [4], 3.47. Further, the IC50 in the data set with HepG2 is over 100 µM. In data set [5], this compound displayed an MIC of 2 µM (≈ 0.683 µg/mL).

Turning to `COc1ccc2nccc(NC(=O)C3CCN(CCc4ccc(Cl)cc4)CC3)c2n1`, in data set [1], the solubility (kinetic) at 1 h is 4 µg/mL (≈ 9.41 µM). Further, the pXC50 in data set [6] worked out at 5.1; in data set [2] it was 6.6. Moreover, the Lipophilicity in data set [4] is reported as 5.49. In the data set with HepG2, the half-inhibitory concentration (IC50) is over 100 µM. Also, in data set [5], inhibition of growth (MIC) required 0.2 µM (≈ 0.085 µg/mL).

On to `O=C(NCc1ccoc1)N1CCN(Cc2ccc3c(c2)OCO3)CC1`, for which the solubility (kinetic) at 1 h in data set [1] amounted to 86 µg/mL (≈ 250 µM). Moreover, the pXC50 in data set [2] was 6.3. Besides, the Lipophilicity in data set [3] was found to be 3.5288; in data set [4], 3.48. The same compound displayed an IC50 in the data set on HepG2 of over 100 µM. For the same compound, the MIC in data set [5] was found to be 1.25 µM (≈ 0.429 µg/mL).

For the compound `Nc1ccccc1Nc1ccc(Cl)cc1`, the solubility (kinetic) at 1 h in data set [1] stood at 59 µg/mL (≈ 270 µM). The pXC50 is listed as 4.5 in data set [6] and 7.8 in data set [2]. Also, the Lipophilicity in data set [3] is 5.9114; in data set [4], 5.76. In addition, the IC50 with HepG2 is 79 µM. Moreover, inhibition of growth in data set [5] (MIC) required 2 µM (≈ 0.437 µg/mL).

On to `O=C(NCc1ccco1)N1CCN(Cc2cccs2)CC1`, for which the kinetic solubility at 1 h in data set [1] is at least 105 µg/mL. For the same compound, the pXC50 in data set [2] is 5.4. In addition, the Lipophilicity came out at 3.5288 in data set [3] and 3.53 in data set [4]. The same compound yielded an IC50 in the data set on HepG2 of over 100 µM. Further, in data set [5], inhibition of growth (MIC) required 2.5 µM (≈ 0.764 µg/mL).

`O=S(=O)(NCc1ccccc1)c1ccc(-c2cc3ccncc3cc2OC2CCNCC2)s1` had a solubility (kinetic) at 1 h in data set [1] of 33 µg/mL (≈ 68.8 µM). For the same compound, in data set [2], the pXC50 is recorded as 5.4. For the same compound, the figures for the Lipophilicity in data set [3] and in data set [4] were 4.4101 and 3.2, respectively. In the data set on HepG2, half-maximal inhibition (IC50) required 10 µM. The compound also returned an MIC in data set [5] of 2.5 µM (≈ 1.2 µg/mL).

Turning to `COc1ccc(-c2nnc3sc(Cc4csc(C)n4)nn23)cc1`, the solubility (kinetic) at 1 h in data set [1] is 95 µg/mL (≈ 277 µM). The compound further yielded a pXC50 in data set [2] of 5.7. Moreover, the Lipophilicity in data set [3] is 4.0511; in data set [4], 3.97. The compound further displayed an IC50 in the data set on HepG2 of over 100 µM. In data set [5], this compound had an MIC of 2.5 µM (≈ 0.859 µg/mL).

In data set [1], `CNc1nc(SC)nnc1-c1cccc(Cl)c1Cl` displayed a solubility (kinetic) at 1 h of at least 85 µg/mL. The compound further displayed a pXC50 in data set [2] of 6.1. Besides, the Lipophilicity in data set [3] stood at 4.9976; in data set [4] it was 4.94. For the same compound, the IC50 with HepG2 was over 100 µM. Also, the MIC in data set [5] stood at 2.5 µM (≈ 0.753 µg/mL).

`CN(Cc1ccc(Cl)cc1)C(=O)CCc1nc2ccccc2oc1=O`: in data set [1], the solubility (kinetic) at 1 h came out at 127 µg/mL (≈ 356 µM). In addition, the pXC50 in data set [6] was 4.9; in data set [2] it was under 4.3. In addition, the figures for the Lipophilicity in data set [3] and in data set [4] were 6.0093 and 5.86, respectively. The IC50 in the data set with HepG2 is over 100 µM. Further, the MIC in data set [5] stood at 3.9 µM (≈ 1.39 µg/mL).

For the compound `O=[N+]([O-])c1cnc(-c2nc3ccccc3[nH]2)s1`, in data set [1], the kinetic solubility at 1 h was determined as 16 µg/mL (≈ 65 µM). The compound further displayed a pXC50 in data set [2] of under 4.3. For the same compound, the results for the Lipophilicity in data set [3] and in data set [4] were 4.459 and 3.17, respectively. Further, the IC50 with HepG2 turned out to be 10 µM. In data set [5], this compound showed an MIC of 4.4 µM (≈ 1.08 µg/mL).

Regarding `c1ccc(-c2ncc(-c3ccc(OCCCn4ccnc4)cc3)s2)cc1`, the kinetic solubility at 1 h in data set [1] came to 3 µg/mL (≈ 8.3 µM). In data set [2], the pXC50 was 5.3. For the same compound, the figures for the Lipophilicity in data set [3] and in data set [4] were 6.7437 and 6.42, respectively. This compound yielded an IC50 in the data set with HepG2 of 25 µM. Moreover, in data set [5], the MIC was 5 µM (≈ 1.81 µg/mL).

For the compound `FC(F)(F)c1nnc2ccc(Sc3nnc(-c4ccco4)o3)nn12`, the kinetic solubility at 1 h in data set [1] is 125 µg/mL (≈ 353 µM). Also, the pXC50 is 4.5 in data set [6] and 5.4 in data set [2]. The Lipophilicity was 3.8715 in data set [3] and 3.78 in data set [4]. Inhibition in the data set with HepG2 was half-maximal at 32 µM (IC50). Moreover, inhibition of growth in data set [5] (MIC) required 5.6 µM (≈ 1.98 µg/mL).

`O=C(NCCO)c1c(O)c2ncc(Cc3ccc(F)cc3C(F)(F)F)cc2[nH]c1=O` returned a kinetic solubility at 1 h in data set [1] of 10 µg/mL (≈ 23.5 µM). This compound gave a pXC50 in data set [2] of 5.7. Also, the Lipophilicity is 3.9858 in data set [3] and 3.74 in data set [4]. For the same compound, the concentration for half-maximal inhibition (IC50) with HepG2 is over 100 µM. Moreover, the lowest concentration to inhibit growth in data set [5] (MIC) was 7.5 µM (≈ 3.19 µg/mL).

As to `O=C(Nc1nc(-c2ccccn2)cs1)N1CCC(Cc2ccc(F)cc2)CC1`, the solubility (kinetic) at 1 h in data set [1] was 4 µg/mL (≈ 10.1 µM). Also, in data set [2], the pXC50 was determined as 6.1. Besides, the Lipophilicity in data set [3] stood at 6.3357; in data set [4], 6.09. Moreover, the IC50 with HepG2 was 25 µM. The compound also yielded an MIC in data set [5] of 10 µM (≈ 3.96 µg/mL).

For `CC(C)Oc1ccc(-c2nnc(-c3ccc4c(c3)CCNCC4)s2)cc1Cl`, the solubility (kinetic) at 1 h in data set [1] is 5 µg/mL (≈ 12.5 µM). In data set [2], this compound displayed a pXC50 of 5.5. In addition, the Lipophilicity is reported as 7.5923 in data set [3] and 4.92 in data set [4]. In the data set on HepG2, this compound yielded a concentration for half-maximal inhibition (IC50) of 16 µM. In addition, the lowest concentration to inhibit growth in data set [5] (MIC) was 10 µM (≈ 4 µg/mL).

In data set [1], `N#Cc1cc(C(F)(F)F)c2nc(C(=O)NCc3cccs3)c(Cl)n2c1` gave a kinetic solubility at 1 h of 72 µg/mL (≈ 187 µM). Moreover, the figures for the pXC50 in data set [6] and in data set [2] were 5.2 and 6.1, respectively. Also, the Lipophilicity was 5.4382 in data set [3] and 5.21 in data set [4]. The compound further came in with an IC50 with HepG2 of over 100 µM. In addition, in data set [5], the MIC was 10 µM (≈ 3.85 µg/mL).

For `COc1ccc(CN2CCN(C(=O)/C=C/c3csc(C)n3)CC2)cc1`, in data set [1], the kinetic solubility at 1 h is at least 116 µg/mL. The pXC50 in data set [2] worked out at 5.7. Further, the Lipophilicity in data set [3] is listed as 4.1653; in data set [4], 4.13. The same compound registered an IC50 in the data set on HepG2 of 80 µM. 10 µM (≈ 3.57 µg/mL) was the least that counted as inhibitory in data set [5] (MIC).

In data set [1], `Nc1ccc(S(=O)(=O)Nc2ccnn2-c2ccccc2)cc1` [SULFAPHENAZOLE] had a solubility (kinetic) at 1 h of at least 167 µg/mL. Besides, the pXC50 in data set [2] was under 4.3. Moreover, the Lipophilicity in data set [3] is reported as 2.8435; in data set [4] it was 1.08. In the data set with HepG2, this compound displayed an IC50 of over 100 µM. In data set [5], this compound came in with an MIC of 10 µM (≈ 3.14 µg/mL).

The kinetic solubility is solubility judged after dilution from a stock solution rather than from solid. As usually defined, the IC50 is the concentration at which inhibition is half-maximal. By MIC is commonly meant the least concentration at which growth counts as inhibited. A higher MIC goes with a less susceptible organism.
